US20150105252A1, “SUBSTITUTED PYRAZOLES AS HERBICIDES” (E I DU PONT DE NEMOURS AND COMPANY, priority 2013, published 2015)

Legend:
[1] = test system: soybean; assay: Test C preemergence; type: in vivo, Glycine max
Method in brief: (§1)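 Visual rating, 0–100 scale (0 no effect, 100 complete control), vs untreated controls after 13–15 d greenhouse. Pre: seeds in loam/sand, treated at sowing. Post: plants in peat-based mix, 1- to 4-leaf (2–18 cm). Solvent + surfactant formulation, non-phytotoxic.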

[2] = test system: crabgrass, large; assay: Test A preemergence; type: in vivo, Digitaria sanguinalis; conditions: preemergence
Method in brief: (§2)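 Injury readout: eye-scored versus untreated controls, 0 to 100. Exposure period: ~10 days, greenhouse. Application: soil-directed spray over sown seed (pre) or spray on seedlings 2–10 cm tall with one or two leaves (post), compound carried in non-phytotoxic solvent including surfactant.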

[3] = test system: waterhemp; assay: Test C preemergence; type: in vivo, Amaranthus rudis
Method in brief: as §1

[4] = test system: oilseed rape; assay: Test C postemergence; type: in vivo, Brassica napus
Method in brief: as §1

[5] = test system: ragweed; assay: Test C preemergence; type: in vivo, Ambrosia elation
Method in brief: as §1

[6] = test system: morningglory; assay: Test A postemergence; type: in vivo, Ipomoea spp.
Method in brief: as §2

[7] = test system: johnsongrass; assay: Test C postemergence; type: in vivo, Sorghum halepense
Method in brief: as §1

[8] = test system: nutsedge, yellow; assay: Test C postemergence; type: in vivo, Cyperus esculentus
Method in brief: as §1

[9] = test system: velvetleaf; assay: Test C preemergence; type: in vivo, Abutilon theophrasti
Method in brief: as §1

[10] = test system: wheat; assay: Test A preemergence; type: in vivo, Triticum aestivum; conditions: preemergence
Method in brief: as §2

[11] = test system: soybean; assay: Test C postemergence; type: in vivo, Glycine max
Method in brief: as §1

[12] = test system: ragweed; assay: Test C postemergence; type: in vivo, Ambrosia elation
Method in brief: as §1

[13] = test system: ryegrass, Italian; assay: Test C postemergence; type: in vivo, Lolium multiflorum
Method in brief: as §1

[14] = test system: corn; assay: Test C postemergence; type: in vivo, Zea mays
Method in brief: as §1

[15] = test system: foxtail, giant; assay: Test C postemergence; type: in vivo, Setaria faberii
Method in brief: as §1

[16] = test system: barnyardgrass; assay: Test C preemergence; type: in vivo, Echinochloa crus-galli
Method in brief: as §1

[17] = preemergence, 31 g ai/ha, visual rating, scale 0 to 100 (0 no effect, 100 complete control), 13 to 15 days
[18] = preemergence, 62 g ai/ha, 13 to 15 days, scale 0 to 100, 0 = no effect, 100 = complete control
[19] = preemergence, 125 g ai/ha, scale 0 to 100, 0 is no effect, 100 is complete control
[20] = 125 g ai/ha, visual injury, 0 to 100 scale, approx. 10 days
[21] = 500 g ai/ha, visual injury after approx. 10 days, 0 to 100 scale (0 no effect, 100 complete control)
[22] = Postemergence, 31 g ai/ha, visually evaluated after 13 to 15 days
[23] = postemergence, 62 g ai/ha, scale 0 to 100
[24] = postemergence, 250 g ai/ha, scale 0 to 100 (0 no effect, 100 complete control)
[25] = postemergence, 125 g ai/ha, scale 0 to 100, 0 no effect, 100 complete control

CCc1cc(C(=O)NC2CC2)nn1Cc1ccnc(OC(F)F)c1 [Compound 98]
50: Foxtail, Giant plant response rating [15, 23]
5: Johnsongrass plant response rating [7, 23] | Plant response rating, Johnsongrass [7, 25] | Nutsedge, Yellow plant response rating [8, 23] | Plant response rating, Nutsedge, Yellow [8, 24] | Plant response rating, Nutsedge, Yellow [8, 25] | Plant response rating (scale of 0 to 100 where 0 is no effect and 100 is complete control), Ryegrass, Italian [13, 22] | Plant response rating (scale of 0 to 100 where 0 is no effect and 100 is complete control), Corn [14, 22] | Corn plant response rating [14, 23] | Plant response rating, Corn [14, 25]
98: Plant response rating (scale of 0 to 100), Soybean ([1]; Preemergence, 250 g ai/ha) | Soybean plant response rating [1, 19] | Waterhemp plant response rating [3, 17] | Plant response rating, Waterhemp [3, 18]
25: Oilseed Rape plant response rating [4, 23]
85: Plant response rating, Soybean [11, 24] | Plant response rating, Soybean [11, 25] | Plant response rating, Foxtail, Giant [15, 24]
0: Plant response rating (scale of 0 to 100 where 0 is no effect and 100 is complete control), Johnsongrass [7, 22] | Plant response rating (scale of 0 to 100 where 0 is no effect and 100 is complete control), Nutsedge, Yellow [8, 22]
30: Soybean plant response rating [1, 17] | Plant response rating, Oilseed Rape [4, 24] | Plant response rating, Oilseed Rape [4, 25] | Wheat plant response rating [10, 20] | Barnyardgrass plant response rating ([16]; preemergence, 31 g ai/ha, scale 0 to 100 (0 no effect, 100 complete control), 13 to 15 days)
20: Plant response rating (scale of 0 to 100 where 0 is no effect and 100 is complete control), Oilseed Rape [4, 22] | Plant response rating, Johnsongrass [7, 24]
95: Ragweed plant response rating [5, 17]
100: Crabgrass, Large plant response rating [2, 20] | Crabgrass, Large plant response rating [2, 21] | Plant response rating (scale of 0 to 100), Waterhemp ([3]; Preemergence, 250 g ai/ha) | Waterhemp plant response rating [3, 19] | Plant response rating (scale of 0 to 100), Ragweed ([5]; Preemergence, 250 g ai/ha) | Plant response rating, Ragweed [5, 18] | Ragweed plant response rating [5, 19] | Plant response rating (scale of 0 to 100), Velvetleaf ([9]; Preemergence, 250 g ai/ha) | Velvetleaf plant response rating [9, 17] | Plant response rating, Velvetleaf [9, 18] | Velvetleaf plant response rating [9, 19] | Plant response rating (scale of 0 to 100), Barnyardgrass ([16]; Preemergence, 250 g ai/ha) | Plant response rating, Barnyardgrass [16, 18] | Barnyardgrass plant response rating [16, 19]
10: Ryegrass, Italian plant response rating [13, 23] | Plant response rating, Ryegrass, Italian [13, 24] | Plant response rating, Ryegrass, Italian [13, 25] | Plant response rating, Corn [14, 24]
15: Plant response rating (scale of 0 to 100 where 0 is no effect and 100 is complete control), Ragweed [12, 22]
45: Plant response rating (scale of 0 to 100 where 0 is no effect and 100 is complete control), Foxtail, Giant [15, 22]
90: Morningglory plant response rating ([6]; Postemergence, 500 g ai/ha, visual rating after approx. 10 days, 0 to 100 scale (0 no effect, 100 complete control)) | Morningglory plant response rating ([6]; postemergence, 125 g ai/ha, about 10 days, visual rating on 0 to 100 scale (0 no effect, 100 complete control)) | Wheat plant response rating [10, 21]
35: Ragweed plant response rating [12, 23]
75: Plant response rating, Ragweed [12, 24] | Plant response rating, Ragweed [12, 25]
70: Plant response rating, Soybean [1, 18] | Plant response rating (scale of 0 to 100 where 0 is no effect and 100 is complete control), Soybean [11, 22] | Soybean plant response rating [11, 23]
55: Plant response rating, Foxtail, Giant [15, 25]
